Values after ≈ are worked out from the molar mass of the structure shown.

The values that follow come from DBAASP.

Test in all cases: ≥ marks a high value that may be exact or a test limit, other limits are often not marked, values filed in µg/mL are converted to µM
The test system of test [1] is Escherichia coli K-12.
Test [2] relates to Staphylococcus aureus Q14-0320.
Test [3] has as its system Pseudomonas aeruginosa Q14-0208.
For test [4], the system named is Staphylococcus aureus MRSA-15.
In test [5] the test system is Staphylococcus aureus Q14-0325.
Test [6] has as its system Salmonella typhimurium SL1344.
For test [7], the system named is Klebsiella pneumoniae ATCC 700603.
Test [8] concerns Campylobacter jejuni NCTC 11351.
The test system of test [9] is Staphylococcus aureus RN4220.
For test [10], the system named is Acinetobacter baumannii Q13-0717.
Test [11] concerns Pseudomonas aeruginosa ATCC 27853.
The subject of test [12] is Pseudomonas aeruginosa Q12-0535.
The test system of test [13] is Klebsiella pneumoniae Q14-0285.
For test [14], the system named is Staphylococcus aureus ATCC 29213.
In test [15] the test system is Klebsiella pneumoniae Q14-0095.
Test [16] concerns Pseudomonas aeruginosa Q14-0890.
For test [17], the system named is Pseudomonas aeruginosa PAO1.
The test system of test [18] is Enterococcus faecalis JH-2-2.
Test [19] relates to Staphylococcus aureus NCTC 12493.
The test system of test [20] is Escherichia coli.
For test [21], the system named is Klebsiella pneumoniae NCTC 13442.
Test [22] relates to Listeria monocytogenes NCTC 11994.
Test [23] deals with Campylobacter jejuni.
For test [24], the system named is Acinetobacter baumannii Q12-0809.
For test [25], the system named is Serratia marcescens ATCC 21202.
For test [26], the system named is Bacillus cereus ATCC 11778.
In test [27] the test system is Streptococcus pyogenes ATCC 19615.
The test system of test [28] is Salmonella enterica subsp. enterica serovar Enteritidis ATCC 13076.
Test [29] deals with Escherichia coli ATCC 25922.
Test [30] concerns Listeria monocytogenes ATCC 19112.
In test [31] the test system is Pseudomonas aeruginosa ATCC 15442.
Test [32] relates to Listeria monocytogenes ATCC 19115.
For test [33], the system named is Bacillus subtilis ATCC 6633.
Test [34] deals with Streptococcus suis CVCC 606.
The subject of test [35] is Salmonella enterica subsp. enterica serovar Enteritidis CVCC 3377.
Test [36] has as its system Klebsiella pneumoniae H507.
The subject of test [37] is Staphylococcus aureus ATCC 25923.

The term MIC denotes the smallest concentration in the dilution series that meets the test's criterion for growth inhibition. Turning to `CC(C)C[C@H](NC(=O)[C@H](CO)NC(=O)[C@H](CO)NC(=O)[C@H](CO)NC(=O)[C@H](CCCN=C(N)N)NC(=O)[C@@H](NC(=O)[C@H](CCCN=C(N)N)NC(=O)[C@H](Cc1c[nH]c2ccccc12)NC(=O)[C@H](CS)NC(=O)[C@H](CC(N)=O)NC(=O)[C@H](CCCN=C(N)N)NC(=O)[C@H](Cc1ccccc1)NC(=O)[C@H](C)NC(=O)[C@H](CCCCN)NC(=O)[C@H](Cc1c[nH]c2ccccc12)NC(=O)[C@H](CCCN=C(N)N)NC(=O)[C@H](Cc1c[nH]c2ccccc12)NC(=O)[C@H](C)N)C(C)C)C(=O)O` [AWRWKAFRNCWRVRSSSL], the MIC in [1] was 27.7 µM (≈ 64 µg/mL); in test [2], no less than 55.4 µM; in [3] it was 27.7 µM (≈ 64 µg/mL); in test [4] it was 27.7 µM (≈ 64 µg/mL); in [5], no less than 55.4 µM; in test [6], 13.9 µM (≈ 32 µg/mL). For the same compound, the minimal inhibitory concentration (MIC) in [7] is 55.4 µM (≈ 128 µg/mL); in [8], no less than 55.4 µM; in [9], 27.7 µM (≈ 64 µg/mL); in test [10] it was 27.7 µM (≈ 64 µg/mL); in test [11] it was greater than 55.4 µM; in test [12], no less than 55.4 µM. Further, the MIC in test [13] is no less than 55.4 µM; in test [14] it was 55.4 µM (≈ 128 µg/mL); in test [15] it was no less than 55.4 µM; in [16] it was 13.9 µM (≈ 32 µg/mL); in [17] it was 13.9 µM (≈ 32 µg/mL); in [18], 27.7 µM (≈ 64 µg/mL). Further, the minimal inhibitory concentration (MIC) is 13.9 µM (≈ 32 µg/mL) in test [19]; greater than 55.4 µM in [20]; no less than 55.4 µM in test [21]; 27.7 µM (≈ 64 µg/mL) in test [22]; no less than 55.4 µM in [23]; 13.9 µM (≈ 32 µg/mL) in test [24].
Take `CC[C@H](C)[C@H](N)C(=O)N[C@H](C(=O)N1CCC[C@H]1C(=O)N[C@@H](CC(C)C)C(=O)N1CCC[C@H]1C(=O)N[C@@H](CC(C)C)C(=O)NCC(=O)N[C@@H](Cc1ccc(O)cc1)C(=O)N[C@@H](Cc1ccccc1)C(=O)N[C@@H](C)C(=O)N[C@@H](CCCCN)C(=O)N[C@@H](CCCCN)C(=O)N[C@@H](CCCCN)C(=O)N[C@@H](CCCCN)C(=O)N[C@@H](CCCCN)C(=O)N[C@@H](CCCCN)C(=O)N[C@@H](CC(=O)O)C(=O)N1CCC[C@H]1C(=O)N[C@H](C(=O)N1CCC[C@H]1C(=O)N[C@@H](CC(C)C)C(=O)N[C@@H](CC(=O)O)C(=O)N[C@@H](CCC(N)=O)C(=O)O)C(C)C)[C@@H](C)CC` [IIPLPLGYFAKKKKKKDPVPLDQ]: the MIC was no less than 37.9 µM in test [25]; no less than 37.9 µM in test [26]; no less than 37.9 µM in test [27]; greater than 37.9 µM in [7]; greater than 37.9 µM in test [11]; greater than 37.9 µM in [14]. The minimal inhibitory concentration (MIC) in test [28] was no less than 37.9 µM; in [29], greater than 37.9 µM.
Turning to `CC[C@H](C)[C@H](NC(=O)[C@H](CO)NC(=O)[C@@H](N)CC(C)C)C(=O)N[C@@H](CCCN=C(N)N)C(=O)N[C@@H](CCCN=C(N)N)C(=O)N[C@@H](CC(C)C)C(=O)N[C@@H](CC(C)C)C(=O)N[C@@H](C)C(=O)N[C@@H](C)C(=O)NCC(=O)N[C@H](C(=O)N[C@@H](CC(C)C)C(=O)N[C@@H](CCCCN)C(=O)N[C@@H](CCC(N)=O)C(=O)N[C@H](C(=O)N[C@@H](CCCCN)C(=O)NCC(=O)N[C@H](C(=O)NCC(=O)N[C@@H](C)C(=O)O)C(C)C)[C@@H](C)O)C(C)C` [LSIRRLLAAGVLKQTKGVGA], the MIC in test [30] was found to be 31.2 µM (≈ 64 µg/mL); in test [31], 13 µM (≈ 26.7 µg/mL).
Turning to `CC[C@H](C)[C@H](NC(=O)[C@H](Cc1ccccc1)NC(=O)[C@H](CC(=O)O)NC(=O)[C@H](CCCCN)NC(=O)[C@H](CCCCN)NC(=O)[C@H](CCC(=O)O)NC(=O)[C@H](Cc1c[nH]c2ccccc12)NC(=O)[C@@H](NC(=O)[C@@H](NC(=O)[C@H](CCCCN)NC(=O)[C@@H](NC(=O)[C@H](CCCCN)NC(=O)[C@H](CCCN=C(N)N)NC(=O)[C@H](CCCN=C(N)N)NC(=O)[C@H](CCSC)NC(=O)[C@@H](NC(=O)[C@H](CCCN=C(N)N)NC(=O)[C@H](CCSC)NC(=O)[C@@H](N)CCSC)C(C)C)[C@@H](C)O)C(C)C)[C@@H](C)CC)C(=O)NCC(=O)N[C@@H](CC(C)C)C(=O)N[C@@H](Cc1ccc(O)cc1)C(=O)N[C@@H](CO)C(=O)N[C@H](C(=O)N[C@@H](CC(=O)O)C(=O)O)[C@@H](C)CC` [MMRVMRRKTKVIWEKKDFIGLYSID], the minimum inhibitory concentration (MIC) in [32] amounted to 3.97 µM (≈ 12.5 µg/mL); in test [33], 7.95 µM (≈ 25 µg/mL); in test [34] it was 0.986 µM (≈ 3.1 µg/mL); in test [11] it was 3.97 µM (≈ 12.5 µg/mL); in test [35], 2 µM (≈ 6.3 µg/mL); in test [36], 7.95 µM (≈ 25 µg/mL). Also, the MIC in test [29] and in test [37] was 0.986 µM (≈ 3.1 µg/mL) each time.
